According to patent US20250100963A1, “SULFONATED AND PHOSPHORYLATED AROMATIC MOLECULES” (Xavier University of Louisiana, priority 2023, published 2025):
Like-named read-outs stand apart in the source and are kept apart here.

Legend:
Assay type in all cases: biochemical
CatG [1] = target: T1, CatG (Homo sapiens, UniProt P08311); test: Michaelis-Menten kinetics of chromogenic substrate (S-7388) hydrolysis by CatG
T1 sequence (P08311 21-244): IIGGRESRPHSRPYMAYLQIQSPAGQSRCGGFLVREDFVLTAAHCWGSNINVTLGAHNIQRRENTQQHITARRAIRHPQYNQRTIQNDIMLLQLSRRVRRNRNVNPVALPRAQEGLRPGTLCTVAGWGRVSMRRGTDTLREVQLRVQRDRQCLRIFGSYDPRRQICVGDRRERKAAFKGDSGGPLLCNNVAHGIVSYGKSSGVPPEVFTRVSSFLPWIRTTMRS
Protocol: The initial rate of the hydrolysis of the chromogenic substrate by CatG was monitored from the linear increase in absorbance corresponding to less than 10% consumption of substrate at 37° C. in pH 7.4 20 mM Tris buffer containing 100 mM NaCl, 2.5 mM CaCl2, 0.1% PEG 8000 and 0.05% tween 80. The initial rate was measured at various substrate concentrations ([…]) at fixed enzyme concentration (30 nM), and fixed sulfonated compounds concentrations (0, 25, 50, 100, 200, 400, and 800 nM). The data were fitted by the Michaelis-Menten Equation (3) to determine the KM (substrate affinity) and VMAX (maximum reaction velocity).
To understand the mechanistic basis of inhibition, Michaelis-Menten kinetics of S-7388 hydrolysis by CatG was performed in the presence of inhibitor 2 at pH 7.4 and 37° C. […] Table 5 and FIG. 5.

Human FXIa = Human FXIa (Homo sapiens, UniProt P03951); test: Direct inhibition of FXIa, chromogenic substrate hydrolysis assay; details: Tris-HCl buffer
Chain of Human FXIa (P03951 388-625): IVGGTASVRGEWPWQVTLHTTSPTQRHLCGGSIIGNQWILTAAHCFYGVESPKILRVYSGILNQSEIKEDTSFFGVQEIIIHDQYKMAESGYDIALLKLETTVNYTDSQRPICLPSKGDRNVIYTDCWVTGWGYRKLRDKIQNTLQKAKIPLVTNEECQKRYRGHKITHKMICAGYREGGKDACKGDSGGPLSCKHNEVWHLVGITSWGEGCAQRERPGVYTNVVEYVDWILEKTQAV
Chain of Human FXIa (P03951 19-387 partner): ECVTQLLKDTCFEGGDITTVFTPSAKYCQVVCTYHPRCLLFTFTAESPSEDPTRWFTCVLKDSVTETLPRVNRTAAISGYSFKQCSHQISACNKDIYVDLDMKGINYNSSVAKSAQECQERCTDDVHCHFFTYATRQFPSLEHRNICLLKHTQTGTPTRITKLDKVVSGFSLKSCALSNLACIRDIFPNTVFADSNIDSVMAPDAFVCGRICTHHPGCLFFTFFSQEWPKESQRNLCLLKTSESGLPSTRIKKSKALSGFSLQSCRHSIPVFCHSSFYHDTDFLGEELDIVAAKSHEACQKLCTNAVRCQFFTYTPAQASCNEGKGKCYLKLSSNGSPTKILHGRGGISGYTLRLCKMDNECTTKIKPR
Protocol: Direct inhibitions of thrombin (FIIa), factor VIIa (FVIIa), factor IXa (FIXa), factor Xa (FXa), FXIa, factor XIIa (FXIIa), trypsin and chymotrypsin were evaluated using the corresponding chromogenic substrate hydrolysis assays as previously reported. Briefly, to each well of a 96-well microplate containing 85-185 μl of […] Tris buffer containing 100 mM NaCl, 2.5 mM CaCl2, 0.1% PEG 8000, and 0.05% tween 80 at 25 (thrombin) or 37° C. (FVIIa, FIXa, FXa, FXIa, FXIIa, chymotrypsin, and trypsin) were added 5 μl of enzyme (thrombin, FVIIa, FIXa, FXa, FXIa, FXIIa, chymotrypsin, and trypsin) and 5 μl of the inhibitor. Following an incubation period of 5 min, the appropriate chromogenic substrates (Spectrozyme TH, Spectrozyme FIXa, Spectrozyme FXa, S-2366, Spectrozyme FXIIa and S-2222) were added and the residual enzyme activity was measured from the initial rate of increase in absorbance at 405 nm. Relative residual enzyme activity as a function of the inhibitor concentration was fitted using Logistic Equation (1) to obtain the IC50 (potency), A Y % (efficacy) of enzyme inhibition, and HS (Hill slope). The concentrations of enzymes and substrates in microplate cells were: 6 nM and 50 μM for thrombin; 1.09 nM and 125 μM for FXa; 5 nM and 125 μM for FXIIa; 89 nM and 850 μM for FIXa; 8 nM and 1000 µM for FVIIa (along with 40 nM recombinant tissue factor); 72.5 ng/ml and 80 μM for bovine trypsin; and 500 ng/ml and 240 μM for bovine chymotrypsin.

CatG [2] = target: T1, CatG; test: Direct inhibition of human CatG, chromogenic substrate hydrolysis assay
Protocol: The method further comprises inhibition of proteases. […] To each well of a 96-well microplate containing 88 μl of 20 mM tris buffer containing 100 mM NaCl, 2.5 mM CaCl2, 0.1% PEG 8000 and 0.05% tween 80 was added 3 μl of CatG (final concentration of 30 nM), and 5 μl of H2O or potential inhibitor (final concentration of 0-100 μM). Following a 5-min incubation, 3 μl of CatG substrate was added (final concentration 750 μM) and the residual CatG activity was obtained from the initial rate of increase of absorbance at 405 nm. The relative residual activity of CatG at each of the inhibitor concentrations was obtained from the ratio of CatG activity in the presence and absence of the inhibitor. Logistic Equation (1) was used to plot the dose-dependence curve to obtain the IC50 (potency) and efficacy of CatG inhibition. Here, Y is the ratio of residual CatG activity in the presence of inhibitor to that in its absence, YO and YM are the minimum and maximum values of fractional residual CatG activity, respectively, IC50 is the concentration of the inhibitor that results in 50% inhibition of CatG activity and HS is the Hill slope.
To each well of a 96-well microplate containing 88 μl of 20 mM tris buffer containing 100 mM NaCl, 2.5 mM CaCl2, 0.1% PEG 8000 and 0.05% tween 80 was added 3 μl of CatG (final concentration of 30 nM), and 5 μl of H2O or potential inhibitor (final concentration of 0-100 μM). Following a 5-min incubation, 3 μl of CatG substrate was added (final concentration 750 μM) and the residual CatG activity was obtained from the initial rate of increase of absorbance at 405 nm. The relative residual activity of CatG at each of the inhibitor concentrations was obtained from the ratio of CatG activity in the presence and absence of the inhibitor. Logistic Equation (1) was used to plot the dose-dependence curve to obtain the IC50 (potency) and efficacy of CatG inhibition. Here, Y is the ratio of residual CatG activity in the presence of inhibitor to that in its absence, YO and YM are the minimum and maximum values of fractional residual CatG activity, respectively, IC50 is the concentration of the inhibitor that results in 50% inhibition of CatG activity and HS is the Hill slope.

SMILES: O=C(Nc1cc(C(=O)Nc2ccc(S(=O)(=O)O)cc2S(=O)(=O)O)cc(C(=O)Nc2ccc(S(=O)(=O)O)cc2S(=O)(=O)O)c1)Nc1cc(C(=O)Nc2ccc(S(=O)(=O)O)cc2S(=O)(=O)O)cc(C(=O)Nc2ccc(S(=O)(=O)O)cc2S(=O)(=O)O)c1 [Formula II, 4,4′,4″,4′-((5,5′-(carbonylbis(azanediyl))bis(isophthaloyl))tetrakis(azanediyl))tetrakis(benzene-1,3-disulfonic acid)]
- Decrease of VMAX, absence of inhibitor vs 800 nM (CatG [1]; 0 vs 800 nM inhibitor): ~3 fold
- Km (CatG [1]; Formula II 40 nM): 1200 ± 300 µM
- Vmax (CatG [1]; Formula II 40 nM): 26.1 ± 2.5 mAU/min
- Km (CatG [1]; Formula II 100 nM): 1290 ± 190 µM
- Vmax (CatG [1]; Formula II 100 nM): 17.6 ± 1.1 mAU/min
- Km (CatG [1]; Formula II 400 nM): 1400 ± 220 µM
- Vmax (CatG [1]; Formula II 400 nM): 11.4 ± 0.8 mAU/min
- Km (CatG [1]; Formula II 800 nM): 1320 ± 207 µM
- Vmax (CatG [1]; Formula II 800 nM): 10.6 ± 0.95 mAU/min
- Vmax (CatG [1]; Formula II 800 nM, listed as inhibitor 2): 10.6±0.95 mAU/min
- KM for S-7388 in the presence or absence of inhibitor (CatG [1]; inhibitor 0-800 nM, pH 7.4, 37° C.): essentially unchanged
- IC50 (Human FXIa): > 500000 nM
- IC50 (CatG [2]; Table 6, read-out: CATG IC50): 90 nM
- HS (Hill slope) (CatG [2]; Tris buffer pH 7.4, 37° C.): 1.5 ± 0.3
- ΔY (efficacy) (CatG [2]; Tris buffer pH 7.4, 37° C.): 82.5 ± 7.4%
- IC50 (CatG [2]; Tris buffer pH 7.4, 37° C., 100 mM NaCl, read-out: IC50): 90 ± 10 nM
